Assay results: US6908943B2, “Use of γ-tocopherol and its oxidative metabolite LLU-α in the treatment of disease” (Loma Linda University Medical Center, priority 1998, dated 2005)
Values joined by “and” are separate entries in the source; they are usually repeats but may differ in a detail not shown here. Equal values may be shown once. “Also recorded” adds a separate entry of the source.

What was measured:
[1] = Chemical characteristics / stability of the natriuretic LLUs; format: physicochemical
[2] = test system: conscious rats; test: In vivo bioassay for natriuresis in conscious rats; parameters: species or system rat; details: for Natriuretic Response (R): R > 0.67 = active
Protocol: The assay for natriuresis in conscious rats has been described previously (see Benaksas et al., above). The assay is briefly reiterated here. Female Sprague-Dawley (Harlan) rats (200-250 g) were cannulated in the femoral artery and vein for monitoring of mean arterial pressure (MAP) and Infusion of saline and samples, respectively. The bladder was catheterized for collection of urine in ten-minute periods. Furosemide (0.4 mg/kg bwt; 1 mg/mL in 0.17% saline) was infused as a positive control at the beginning of the sixth ten-minute period. The sample was infused at the beginning of the seventeenth ten-minute period. Urine was collected for another 150 minutes. The volume of the urine was determined gravimetrically and the Na^+ and K^+ concentrations determined with a Beckman E2A electrolyte analyzer.
The natriuretic response of a sample was normalized to the dose of furosemide infused. The not sodium excretion for the Infusion of furosemide or sample was calculated as follows. The median sodium excretion value (μmoles Na^+/10 minute period) for the five periods before infusion of furosemide or sample was used to establish a baseline value for the calculation of ΔUNaV (=μmoles Na^+ period—baseline μmoles Na^+) for administration of either furosemide or sample respectively. The sum of ΔUNaV for the four periods following infusion of furosemide was the net sodium excreted for furosemide, defined as FR. The sum of ΔUNaV for the fifteen periods following infusion of the sample was the net sodium excreted for the sample defined as SR. The natriuretic ratio Rn (or normalized natriuretic response) of a sample was calculated by dividing SR by FR (Rn=SR/FR). A sample is considered natriuretically active if the Rn value for that sample was greater than or equal to 0.67 (greater than 99% confidence limits).

[3] = molecular target: T1, Na+/K+-ATPase (Bos taurus, UniProt Q08DA1); test: Na+/K+-ATPase inhibition assay (86Rb+ uptake) in MDBK cells; format: cell-based, bovine; details: 0.2-200 ng/well
T1 construct: host or cells: MDBK (Madin-Darby bovine kidney) cells
Protocol: The assay in MDBK cells has been described previously (see Benaksas at al., above). The assay is described briefly here. Madin-Darby bovine kidney (MDBK) cells (ATCC:CCL22) were maintained in Dulbecco's Modified Eagle's Medium (DMEM) with 5% Fetal Bovine Serum and 5% Bovine Calf Serum in a 5% CO2/95% humidified air atmosphere at 37° C. and split (1:2) once per week.
One day before the assay, cells were plated in a 96-well plate at a density of 5×10^5 cells/well in DMEM with serum. On the day of the assay the medium was removed and the cells washed with phosphate buffered saline (PBS) before addition of 100 μL of assay media (122 mM NaCl, 1.8 mM CaCl2, 0.8 mM MgSO4, 24 mM NaHCO3, 1 mM sodium pyruvate, 25 mM glucose, 14 mM glycylglycine, 0.2% phenol red, 8 mM Na2HPO4 1.15 mM KH2PO4, pH 8.0) and 100 μl of sample. The plate was preincubated for 30 minutes at 37° C., then chilled on ice for 10 minutes. To each well was added 0.15 μCi ^86RbCl (Amersham) in 10 μL of assay media. The plate was then incubated at 37° C. for 10 minutes. A portion (100 μL) of the supernatant was counted with 0.5 mL of scintillation cocktail in a liquid scintillation counter. As a control for Na^+/K^+-ATPase inhibition, a dose response curve for ouabain in the range of 10^−5-10^−8 M was obtained. Intra-experiment coefficient of variation for ouabain was 3-15%. […]

[4] = test system: tumor cells derived from a spontaneously arising mammary tumor; test: Tumor formation in mice injected with mammary tumor cells; format: in vivo; details: 20 mg/kg, 21 days after tumor cell injection, versus untreated tumor-induced control mice
Description: Four groups of mice are used in the study: (1) control mice in which tumor formation is not induced but treatment with a formulation of γ-tocopherol 75% (weight to weight) and LLU-α 25% (weight to weight) is rendered; (2) control mice in which tumor formation is induced and treatment is not rendered; (3) experimental mice in which tumor formation is induced and treatment with γ-tocopherol 75% (weight to weight) is rendered; and (4) experimental mice in which tumor formation is induced and treatment with a formulation of γ-tocopherol 75% (weight to weight) and LLU-α 25% (weight to weight) is rendered. As a further control, mice in which tumor formation is induced are treated with varying concentrations of α-tocopherol so as to evaluate the relative effectivity of γ-tocopherol and the formulation of γ-tocopherol and LLU-α, as compared to α-tocopherol.
Mice which receive treatment with γ-tocopherol or a formulation of γ-tocopherol and LLU-α, as described above, are given 20 mg/kg of supplement for a period of 2-4 weeks. Tumor cells derived from a spontaneously arising mammary tumor are then injected into the thigh area of the experimental mice to induce tumor formation. Treatment with γ-tocopherol and the formulation of γ-tocopherol and LLU-α is continued according to the protocol above. After 21 days, the mean volume of tumors in the mice is determined and compared.

Cc1c(C)c2c(c(C)c1O)CCC(C)(CCC(=O)O)O2 (racemic) [Example 12, 2,5,7,8-tetramethyl-2-(β-carboxyethyl)-6-hydroxy chroman]
melting point: 173 °C

Cc1c(O)cc2c(c1C)OC(C)(CCC(=O)O)CC2 (racemic) [LLU-α, 6-hydroxy-2,7,8-trimethylchroman-2-propanoic acid]
Physical Properties: stability in CDCl3 ([1]; CDCl3): Unstable in
Physical Properties: stability in dilute base ([1]; dilute base): instability; also recorded: Unstable in
natriuretic activity ([2]; 8 μg/kg, further purified on acetic acid/acetonitrile RP-HPLC (seventh step)): active
kaliuresis (potassium excretion) ([2]; after infusion, conscious rat): no detectable kaliuresis
change in mean arterial pressure ([2]; infusion, conscious rat): Neither LLU-α nor -γ caused a significant Change; also recorded: does not cause a significant change
effect on blood pressure ([2]; infusion, conscious rat): no effect on blood pressure
natriuresis when infused into the rat ([2]; infusion, conscious rat): sustained natriuresis
natriuretic activity at lower or higher doses ([2]; partially purified (sixth step), doses below or above 4-8 μg/kg): no activity
dose range with natriuretic activity ([2]; partially purified from silica gel-HPLC (sixth purification step)): 4 to 8 µg/kg
natriuretic dose-response curve ([2]; shape of curve (Table III)): narrow and biphasic
Natriuretic Response (R) ([2]; silica gel HPLC fraction 17, dose 0.2 μg, infused in conscious rat): −0.14
Natriuretic Response (R) ([2]; silica gel HPLC fraction 17, dose 1 μg): 0.27
Natriuretic Response (R) ([2]; silica gel HPLC fraction 17, dose 2 μg): 1.14 and 0.75
Natriuretic Response (R) ([2]; silica gel HPLC fraction 17, dose 10 μg): 0.26
Natriuretic Response (R) ([2]; silica gel HPLC fraction 18, dose 22.4 μg): 0.02
Natriuretic Response (R) ([2]; silica gel HPLC fraction 18, dose 56.4 μg): 0.23
Natriuretic Response (R) ([2]; silica gel HPLC fraction 19, dose 0.2 μg): 0.24
Natriuretic Response (R) ([2]; silica gel HPLC fraction 19, dose 1 μg): 0.93
Natriuretic Response (R) ([2]; silica gel HPLC fraction 19, dose 10 μg): 0.09
sodium excretion in the urine in mammals ([2]; without a corresponding increase in potassium excretion): capable of increasing sodium excretion
Na+/K+-ATPase inhibition [3]: no inhibition

Cc1c(O)cc2c(c1C)O[C@](C)(CCC[C@H](C)CCC[C@H](C)CCCC(C)C)CC2 [γ-tocopherol]
mean volume of tumors [4]: less than the mean volume of tumors in the control mice
